Legend:
[1] = Selectivity index, ratio of Ki for recombinant Plasmodium falciparum dUTPase F46A mutant expressed in Escherichia coli BL21(DE3) cells to Ki for human dUTPase
[2] = Selectivity index, ratio of Ki for recombinant Plasmodium falciparum dUTPase K96A mutant expressed in Escherichia coli BL21(DE3) cells to Ki for human dUTPase
dUTP pyrophosphatase [3] = target: dUTP pyrophosphatase (Plasmodium falciparum 3D7, UniProt Q8II92, F46A); assay: Inhibition of recombinant Plasmodium falciparum dUTPase F46A mutant expressed in Escherichia coli BL21(DE3) cells using dUTP as substrate by spectrophotometric analysis
Chain of dUTP pyrophosphatase (Plasmodium falciparum 3D7, UniProt Q8II92, F46A) (Q8II92 whole entry F46A): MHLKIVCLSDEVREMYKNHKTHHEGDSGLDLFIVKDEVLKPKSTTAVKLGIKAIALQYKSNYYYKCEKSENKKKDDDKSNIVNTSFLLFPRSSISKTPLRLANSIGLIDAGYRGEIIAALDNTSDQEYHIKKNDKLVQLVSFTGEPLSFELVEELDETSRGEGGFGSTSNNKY

[4] = Inhibition of recombinant wild type Plasmodium falciparum dUTPase expressed in Escherichia coli BL21(DE3) cells using dUTP as substrate by spectrophotometric analysis
dUTP pyrophosphatase [5] = target: dUTP pyrophosphatase (Plasmodium falciparum 3D7, UniProt Q8II92, I117A); assay: Inhibition of recombinant Plasmodium falciparum dUTPase I117A mutant expressed in Escherichia coli BL21(DE3) cells using dUTP as substrate by spectrophotometric analysis
Chain of dUTP pyrophosphatase (Plasmodium falciparum 3D7, UniProt Q8II92, I117A) (Q8II92 whole entry I117A): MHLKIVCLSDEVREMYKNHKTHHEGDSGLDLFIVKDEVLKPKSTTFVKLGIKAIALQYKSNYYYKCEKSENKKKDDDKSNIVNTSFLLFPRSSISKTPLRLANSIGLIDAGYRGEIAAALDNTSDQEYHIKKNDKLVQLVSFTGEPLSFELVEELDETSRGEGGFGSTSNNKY

[6] = Selectivity index, ratio of Ki for recombinant Plasmodium falciparum dUTPase I117A mutant expressed in Escherichia coli BL21(DE3) cells to Ki for human dUTPase
dUTP pyrophosphatase [7] = target: dUTP pyrophosphatase (Plasmodium falciparum 3D7, UniProt Q8II92, K96A); assay: Inhibition of recombinant Plasmodium falciparum dUTPase K96A mutant expressed in Escherichia coli BL21(DE3) cells using dUTP as substrate by spectrophotometric analysis
Chain of dUTP pyrophosphatase (Plasmodium falciparum 3D7, UniProt Q8II92, K96A) (Q8II92 whole entry K96A): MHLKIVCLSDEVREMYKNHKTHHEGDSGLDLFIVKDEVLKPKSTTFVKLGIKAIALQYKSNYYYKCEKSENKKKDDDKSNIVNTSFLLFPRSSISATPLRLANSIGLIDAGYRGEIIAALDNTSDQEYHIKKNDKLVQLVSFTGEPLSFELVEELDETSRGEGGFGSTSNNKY

[8] = Selectivity index, ratio Ki for recombinant wild type Plasmodium falciparum dUTPase expressed in Escherichia coli BL21(DE3) cells to Ki for human dUTPase
[9] = target: T1, Deoxyuridine 5'-triphosphate nucleotidohydrolase, mitochondrial (Homo sapiens, UniProt P33316); assay: Inhibition of human dUTPase using dUTP as substrate by spectrophotometric analysis
T1 sequence (P33316 whole entry): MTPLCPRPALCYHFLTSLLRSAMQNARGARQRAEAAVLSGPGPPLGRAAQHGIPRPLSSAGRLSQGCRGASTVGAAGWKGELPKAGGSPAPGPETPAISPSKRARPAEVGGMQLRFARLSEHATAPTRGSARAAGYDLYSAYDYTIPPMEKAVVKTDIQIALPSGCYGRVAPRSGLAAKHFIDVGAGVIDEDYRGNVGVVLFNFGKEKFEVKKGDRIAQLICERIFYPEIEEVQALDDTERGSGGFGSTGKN

Plasmodium falciparum = assay: Antimalarial activity against blood stage Plasmodium falciparum infected in human red blood cells […] by propidium iodide staining based microscopic analysis; type: functional, organism-based

Structure (SMILES)	Ratio Ki [1]	Ratio Ki [2]	Ki (dUTP pyrophosphatase [3]) [µM]	Ki [4] [µM]	Ki (dUTP pyrophosphatase [5]) [µM]	Ratio Ki [6]	Ki (dUTP pyrophosphatase [7]) [µM]	Ratio Ki [8]	Ki [9] [µM]	IC50 (Plasmodium falciparum) [µM]
O=c1ccn(CCC(CO)CNC(c2ccccc2)(c2ccccc2)c2ccccc2)c(=O)[nH]1 (centres undefined)	0.19	142	29	0.2	0.27	21	0.04	28		
CC(C)(C)[Si](OC[C@@H]1C=C[C@H](n2ccc(=O)[nH]c2=O)O1)(c1ccccc1)c1ccccc1	> 59	> 2560	17	1.2	0.8	> 1250	0.21	> 833	> 1000	3
O=c1ccn(COCCOC(c2ccccc2)(c2ccccc2)c2ccccc2)c(=O)[nH]1	1.3		13	0.7	8	2.1		24		
O=c1ccn(CCCCCCNC(c2ccccc2)(c2ccccc2)c2ccccc2)c(=O)[nH]1	> 29	> 6670	35	1.8	4.4	> 227	0.15	> 556		
O=c1ccn(CCCNC(c2ccccc2)(c2ccccc2)c2ccccc2)c(=O)[nH]1	0.04	35	28	0.2	0.6	2.4	0.04	7		
O=c1ccn([C@H]2C=C[C@@H](COC(c3ccccc3)(c3ccccc3)c3ccccc3)O2)c(=O)[nH]1	8	402	20.3	1.9	1.6	98	0.39	83	157	> 11
O=c1ccn([C@H]2C[C@H](F)[C@@H](COC(c3ccccc3)(c3ccccc3)c3ccccc3)O2)c(=O)[nH]1	2	95	225	5	406	1.1	4.8	91		
O=c1ccn([C@H]2C[C@H](O)[C@@H](CNC(c3ccccc3)(c3ccccc3)c3ccccc3)O2)c(=O)[nH]1	2.3	418	20	0.24	1.3	35	0.11	192		
O=c1ccn(C/C=C/COC(c2ccccc2)(c2ccccc2)c2ccccc2)c(=O)[nH]1	> 167	> 11100	6	0.6	0.8	> 1250	0.09	> 1670		
